Assay results from ChEMBL document CHEMBL2412988, “Synthesis, pH-dependent, and plasma stability of meropenem prodrugs for potential use against drug-resistant tuberculosis” (Bioorg Med Chem, 2013).

System: Mycobacterium tuberculosis
Assay: Antimycobacterial activity against extensively drug-resistant Mycobacterium tuberculosis in presence of clavulanate
Type: functional

C[C@@H](O)[C@H]1C(=O)N2C(C(=O)O)=C(S[C@@H]3CN[C@H](C(=O)N(C)C)C3)[C@H](C)[C@H]12 [MEROPENEM]
MIC: 0.03 µg/mL
